In PubChem BioAssay (NCI) one finds TGI and GI50 data, which are given here for 20 compounds.

Values joined by “and” are separate entries in the source; they are usually repeats but may differ in a detail not shown here. Equal values may be shown once.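 Values below derive from 48-hour exposures of cells grown in 96-well plates, with endpoints linearly interpolated between the two concentrations bracketing the appropriate inhibition level. At the GI50, growth is halved. TGI denotes the concentration required for complete inhibition of growth.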 Some results are limits rather than exact numbers.

The first experiment has as its system OVCAR-5 ovarian. In words: NCI tumour cell line growth inhibition, 48 h.
As for `CCOC(=O)c1cc2nc3ccccc3c(=O)n2c2ccccc12`, the TGI is above 10 µM.
For `COc1cc2c(c(OC)c1OC)-c1ccc(OC)c(=O)cc1C(NC(=O)c1ccc(N=[N+]=[N-])cc1)CC2` (stereo unspecified), the TGI was above 100 µM.
As to `Cc1ccc(S(=O)(=O)Nc2ccccc2C(=O)c2ccc(C)c(C)c2)cc1`, the TGI is above 100 µM.
Still for that read-out and setting: in the case of `COc1c(Cl)c(=O)oc2ccc(Cl)cc12` it was above 100 µM; in that of `NS(=O)(=O)c1cc(Br)c(N=Nc2ccc(O)c3ncccc23)c(Br)c1`, above 100 µM.
As for `COc1ccc([C@H]2[C@@H](F)C(=O)N2c2cc(OC)c(OC)c(OC)c2)cc1F`, the GI50 is 0.423 µM and the TGI was above 100 µM.
For the compound `Cc1cc(I)cc(CN(C)CCCN2CCCCC2)c1O`, the GI50 is 21 µM and the TGI was 59.4 µM.
For `CN(C(=O)c1ccc(C(F)(F)F)cc1)c1ccc(Oc2ccc3c(c2)cc(C(=O)N2CCN(Cc4ccc(OC(F)F)cc4)CC2)n3C)nc1`, in that order: above 100 µM and above 100 µM.
In turn, `CCCCCCCCC/C=C1\CCC(CN2CCOCC2)C1=O` (stereo unspecified) registered a TGI of 31.6 µM.
The compound `O=S(=O)(CCn1c(Sc2ccccc2)c(Sc2ccccc2)c2ccccc21)c1ccccc1` came in with a TGI above 100 µM.
The same measure, in the same setting: in the case of `O=c1[nH]c(Nc2nc3ccccc3[nH]2)nc(O)c1-c1ccccc1` it was above 100 µM; in that of `Cc1ccccc1S(=O)(=O)OC1NS(=O)(=O)c2ccccc21` (stereo unspecified), above 100 µM.
With `O=C(/C=C/c1ccncc1)c1cc(Cl)ccc1O`, the GI50 is 24 µM and the TGI was 50.7 µM.
As to `OCC#Cc1ccccc1C#Cc1ccccc1`, the GI50 was 14.4 µM and the TGI was 28.3 µM.
In the case of `CN(C)CCSC1=Nc2ccc(Cl)cc2C(c2ccccc2Cl)=NC1`, the GI50 was 18.6 µM and > 100 µM; the TGI was 34.4 µM and > 100 µM.
`Cc1cc(-c2ccc3nc(C4CCOCC4)n(CCOC(F)(F)F)c3c2)cn(C)c1=O`: the GI50 was 0.552 µM and the TGI is above 56.4 µM.
On the same counts, the results for `ClCc1cccc(Cn2cnc3ncnc(Cl)c32)c1` are 6.74 µM and 19.8 µM.
On the same counts, the results for `COc1cc2c3c(n(C)c(=O)c2cc1OC)-c1cc2c(cc1/C3=C\CCCN)OCO2` are 3.75 µM and 26.2 µM.
On the same counts, the results for `COc1cc(/C=C2\CN(S(=O)(=O)c3ccccc3)C/C(=C\c3cc(CN4CCCC4)c(O)c(OC)c3)C2=O)cc(CN2CCCC2)c1O` are 1.91 µM and 3.86 µM.

The subject of another experiment is BT-549 breast. In words: NCI tumour cell line growth inhibition, 48 h.
As for `CCOC(=O)c1cc2nc3ccccc3c(=O)n2c2ccccc12`, the TGI is above 10 µM.
On the same count and under the same terms, in the case of `COc1cc2c(c(OC)c1OC)-c1ccc(OC)c(=O)cc1C(NC(=O)c1ccc(N=[N+]=[N-])cc1)CC2` (stereo unspecified) it was above 100 µM.
On the same count and under the same terms, then `Cc1ccc(S(=O)(=O)Nc2ccccc2C(=O)c2ccc(C)c(C)c2)cc1`, with above 100 µM; and `COc1c(Cl)c(=O)oc2ccc(Cl)cc12`, with above 100 µM.
On to `NS(=O)(=O)c1cc(Br)c(N=Nc2ccc(O)c3ncccc23)c(Br)c1`, for which the TGI is above 100 µM.
As to `COc1ccc([C@H]2[C@@H](F)C(=O)N2c2cc(OC)c(OC)c(OC)c2)cc1F`, the GI50 was 0.0498 µM and the TGI came to 33.8 µM.
Turning to `Cc1cc(I)cc(CN(C)CCCN2CCCCC2)c1O`, the GI50 was 10.7 µM and the TGI worked out at 22.9 µM.
For the compound `CN(C(=O)c1ccc(C(F)(F)F)cc1)c1ccc(Oc2ccc3c(c2)cc(C(=O)N2CCN(Cc4ccc(OC(F)F)cc4)CC2)n3C)nc1`, the GI50 is 6.71 µM and the TGI is above 100 µM.
Take `CCCCCCCCC/C=C1\CCC(CN2CCOCC2)C1=O` (stereo unspecified): the TGI is 3.8 µM.
As for `O=S(=O)(CCn1c(Sc2ccccc2)c(Sc2ccccc2)c2ccccc21)c1ccccc1`, the TGI is above 100 µM.
Regarding `O=c1[nH]c(Nc2nc3ccccc3[nH]2)nc(O)c1-c1ccccc1`, the TGI was above 100 µM.
On the same count and under the same terms, in the case of `Cc1ccccc1S(=O)(=O)OC1NS(=O)(=O)c2ccccc21` (stereo unspecified) it was above 100 µM.
With `O=C(/C=C/c1ccncc1)c1cc(Cl)ccc1O`, the GI50 was 16.6 µM and the TGI came out at 31.1 µM.
On the same counts, the results for `OCC#Cc1ccccc1C#Cc1ccccc1` are 13.2 µM and 27.8 µM.
The compound `CN(C)CCSC1=Nc2ccc(Cl)cc2C(c2ccccc2Cl)=NC1` returned a TGI above 100 µM.
Consider `Cc1cc(-c2ccc3nc(C4CCOCC4)n(CCOC(F)(F)F)c3c2)cn(C)c1=O`, for which the GI50 is 3.99 µM and the TGI was above 80.4 µM.
For `ClCc1cccc(Cn2cnc3ncnc(Cl)c32)c1`, in that order: 13.1 µM and 28.6 µM.
`COc1cc2c3c(n(C)c(=O)c2cc1OC)-c1cc2c(cc1/C3=C\CCCN)OCO2`: the GI50 was 15.5 µM and the TGI was found to be 38.9 µM.
For `OCCCCCNCc1cc2cc3c(cc2c2cc(OCc4ccccc4)ccc12)OCO3`, in that order: 1.62 µM and 2.98 µM.
For `COc1cc(/C=C2\CN(S(=O)(=O)c3ccccc3)C/C(=C\c3cc(CN4CCCC4)c(O)c(OC)c3)C2=O)cc(CN2CCCC2)c1O`, in that order: 1.99 µM and 5.14 µM.

A further experiment concerns UACC-257 melanoma. Kind of experiment: NCI tumour cell line growth inhibition, 48 h.
Compound `CCOC(=O)c1cc2nc3ccccc3c(=O)n2c2ccccc12` showed a TGI above 10 µM.
Still for that read-out and setting: then `COc1cc2c(c(OC)c1OC)-c1ccc(OC)c(=O)cc1C(NC(=O)c1ccc(N=[N+]=[N-])cc1)CC2` (stereo unspecified), with above 100 µM.
The same measure, in the same setting: then `Cc1ccc(S(=O)(=O)Nc2ccccc2C(=O)c2ccc(C)c(C)c2)cc1`, with above 100 µM.
With `COc1c(Cl)c(=O)oc2ccc(Cl)cc12`, the TGI is above 100 µM.
Same read-out and setting: then `NS(=O)(=O)c1cc(Br)c(N=Nc2ccc(O)c3ncccc23)c(Br)c1`, with 67.3 µM.
On to `COc1ccc([C@H]2[C@@H](F)C(=O)N2c2cc(OC)c(OC)c(OC)c2)cc1F`, for which the GI50 is above 100 µM and the TGI was above 100 µM.
Take `Cc1cc(I)cc(CN(C)CCCN2CCCCC2)c1O`: the GI50 was 16.4 µM and the TGI was 31.9 µM.
On the same counts, the results for `CN(C(=O)c1ccc(C(F)(F)F)cc1)c1ccc(Oc2ccc3c(c2)cc(C(=O)N2CCN(Cc4ccc(OC(F)F)cc4)CC2)n3C)nc1` are 0.138 µM and above 100 µM.
In turn, `CCCCCCCCC/C=C1\CCC(CN2CCOCC2)C1=O` (stereo unspecified) registered a TGI of 10.7 µM.
The same measure, in the same setting: then `O=c1[nH]c(Nc2nc3ccccc3[nH]2)nc(O)c1-c1ccccc1`, with above 100 µM; and `Cc1ccccc1S(=O)(=O)OC1NS(=O)(=O)c2ccccc21` (stereo unspecified), with above 100 µM.
On to `O=C(/C=C/c1ccncc1)c1cc(Cl)ccc1O`, for which the GI50 was 22.2 µM and the TGI stood at 49.7 µM.
On the same counts, the results for `OCC#Cc1ccccc1C#Cc1ccccc1` are 16.2 µM and 32 µM.
Turning to `CN(C)CCSC1=Nc2ccc(Cl)cc2C(c2ccccc2Cl)=NC1`, the GI50 was 13.4 µM and > 100 µM; the TGI was 26.3 µM and > 100 µM.
Take `ClCc1cccc(Cn2cnc3ncnc(Cl)c32)c1`: the GI50 is 1.96 µM and the TGI amounted to 5.52 µM.
Turning to `COc1cc2c3c(n(C)c(=O)c2cc1OC)-c1cc2c(cc1/C3=C\CCCN)OCO2`, the GI50 was 30.5 µM and the TGI is above 100 µM.
For `OCCCCCNCc1cc2cc3c(cc2c2cc(OCc4ccccc4)ccc12)OCO3`, in that order: 1.63 µM and 3.15 µM.

In another experiment the test system is NCI-H226 lung. Kind of experiment: NCI tumour cell line growth inhibition, 48 h.
As to `CCOC(=O)c1cc2nc3ccccc3c(=O)n2c2ccccc12`, the TGI was above 10 µM.
The compound `COc1cc2c(c(OC)c1OC)-c1ccc(OC)c(=O)cc1C(NC(=O)c1ccc(N=[N+]=[N-])cc1)CC2` (stereo unspecified) showed a TGI of 3.78 µM.
Still for that read-out and setting: in the case of `Cc1ccc(S(=O)(=O)Nc2ccccc2C(=O)c2ccc(C)c(C)c2)cc1` it was above 100 µM.
As for `COc1c(Cl)c(=O)oc2ccc(Cl)cc12`, the TGI is above 100 µM.
The same measure, in the same setting: then `NS(=O)(=O)c1cc(Br)c(N=Nc2ccc(O)c3ncccc23)c(Br)c1`, with above 100 µM.
For `COc1ccc([C@H]2[C@@H](F)C(=O)N2c2cc(OC)c(OC)c(OC)c2)cc1F`, the GI50 was 22.2 µM and the TGI is above 100 µM.
For `Cc1cc(I)cc(CN(C)CCCN2CCCCC2)c1O`, in that order: 28.1 µM and above 100 µM.
Regarding `CN(C(=O)c1ccc(C(F)(F)F)cc1)c1ccc(Oc2ccc3c(c2)cc(C(=O)N2CCN(Cc4ccc(OC(F)F)cc4)CC2)n3C)nc1`, the GI50 was 1.44 µM and the TGI is above 100 µM.
Take `CCCCCCCCC/C=C1\CCC(CN2CCOCC2)C1=O` (stereo unspecified): the TGI was found to be 15.3 µM.
As for `O=S(=O)(CCn1c(Sc2ccccc2)c(Sc2ccccc2)c2ccccc21)c1ccccc1`, the TGI was above 100 µM.
Still for that read-out and setting: in the case of `O=c1[nH]c(Nc2nc3ccccc3[nH]2)nc(O)c1-c1ccccc1` it was above 100 µM.
Turning to `O=C(/C=C/c1ccncc1)c1cc(Cl)ccc1O`, the GI50 was 22.7 µM and the TGI is 58 µM.
`OCC#Cc1ccccc1C#Cc1ccccc1`: the GI50 is 15 µM and the TGI is 29.4 µM.
For `Cc1cc(-c2ccc3nc(C4CCOCC4)n(CCOC(F)(F)F)c3c2)cn(C)c1=O`, the TGI stood at 8.47 µM.
As for `ClCc1cccc(Cn2cnc3ncnc(Cl)c32)c1`, the GI50 was 3.19 µM and the TGI was 8.67 µM.
Take `COc1cc2c3c(n(C)c(=O)c2cc1OC)-c1cc2c(cc1/C3=C\CCCN)OCO2`: the GI50 was 9.33 µM and the TGI amounted to 31.6 µM.
On the same counts, the results for `OCCCCCNCc1cc2cc3c(cc2c2cc(OCc4ccccc4)ccc12)OCO3` are 1.85 µM and 3.41 µM.

The subject of the next experiment is U251 CNS. Kind of experiment: NCI tumour cell line growth inhibition, 48 h.
Compound `CCOC(=O)c1cc2nc3ccccc3c(=O)n2c2ccccc12` yielded a TGI above 10 µM.
Still for that read-out and setting: then `COc1cc2c(c(OC)c1OC)-c1ccc(OC)c(=O)cc1C(NC(=O)c1ccc(N=[N+]=[N-])cc1)CC2` (stereo unspecified), with 4 µM; and `Cc1ccc(S(=O)(=O)Nc2ccccc2C(=O)c2ccc(C)c(C)c2)cc1`, with above 100 µM.
On the same count and under the same terms, in the case of `COc1c(Cl)c(=O)oc2ccc(Cl)cc12` it was above 100 µM.
Same read-out and setting: in the case of `NS(=O)(=O)c1cc(Br)c(N=Nc2ccc(O)c3ncccc23)c(Br)c1` it was above 100 µM.
Turning to `COc1ccc([C@H]2[C@@H](F)C(=O)N2c2cc(OC)c(OC)c(OC)c2)cc1F`, the GI50 is 0.236 µM and the TGI was above 100 µM.
On the same counts, the results for `Cc1cc(I)cc(CN(C)CCCN2CCCCC2)c1O` are 15.7 µM and 33.4 µM.
On the same counts, the results for `CN(C(=O)c1ccc(C(F)(F)F)cc1)c1ccc(Oc2ccc3c(c2)cc(C(=O)N2CCN(Cc4ccc(OC(F)F)cc4)CC2)n3C)nc1` are 6 µM and above 100 µM.
`CCCCCCCCC/C=C1\CCC(CN2CCOCC2)C1=O` (stereo unspecified) registered a TGI of 3.73 µM.
Still for that read-out and setting: in the case of `O=S(=O)(CCn1c(Sc2ccccc2)c(Sc2ccccc2)c2ccccc21)c1ccccc1` it was above 100 µM; in that of `O=c1[nH]c(Nc2nc3ccccc3[nH]2)nc(O)c1-c1ccccc1`, above 100 µM.
With `Cc1ccccc1S(=O)(=O)OC1NS(=O)(=O)c2ccccc21` (stereo unspecified), the TGI is above 100 µM.
Consider `O=C(/C=C/c1ccncc1)c1cc(Cl)ccc1O`, for which the GI50 is 12.7 µM and the TGI was 26.2 µM.
On the same counts, the results for `OCC#Cc1ccccc1C#Cc1ccccc1` are 11.7 µM and 25.2 µM.
For `CN(C)CCSC1=Nc2ccc(Cl)cc2C(c2ccccc2Cl)=NC1`, the GI50 is 13.6 µM and 89.5 µM; the TGI was 28.1 µM and > 100 µM.
Take `Cc1cc(-c2ccc3nc(C4CCOCC4)n(CCOC(F)(F)F)c3c2)cn(C)c1=O`: the GI50 was 1.02 µM.
Turning to `ClCc1cccc(Cn2cnc3ncnc(Cl)c32)c1`, the GI50 was 1.97 µM and the TGI amounted to 3.95 µM.
On to `COc1cc2c3c(n(C)c(=O)c2cc1OC)-c1cc2c(cc1/C3=C\CCCN)OCO2`, for which the GI50 was 1.66 µM and the TGI was 10.6 µM.
